{
  "source": "patent US10111874B2",
  "about": "“Combination therapies for treatment of cancer” (Araxes Pharma LLC, priority 2014, dated 2018)",
  "data": [
    {"molecular_target": "T1, KRAS G12C 1-169, his-tagged protein, GDP-loaded (Homo sapiens, UniProt P01116, G12C)", "T1 construct": "KRAS G12C 1-169, his-tagged protein, GDP-loaded", "T1 sequence (P01116 1-169 isoform P01116-2 G12C)": "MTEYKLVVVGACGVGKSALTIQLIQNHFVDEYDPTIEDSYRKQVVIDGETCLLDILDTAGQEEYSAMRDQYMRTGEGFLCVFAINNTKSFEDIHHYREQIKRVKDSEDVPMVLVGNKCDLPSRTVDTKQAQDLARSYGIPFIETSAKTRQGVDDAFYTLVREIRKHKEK", "assay": "Biochemical assay: covalent binding to KRAS G12C analyzed by mass spectrometry; further: test concentration or dose not given here", "details": "compounds 48-246, measured at 2 h", "values": [
      {"smiles": "C=CC(=O)N1CCN(c2ncnc3cc(-c4ccc(F)cc4F)c(Cl)cc23)CC1C#N", "note": "(stereo not drawn) [Compound I-145, 1-acryloyl-4-(6-chloro-7-(2,4-difluorophenyl)quinazolin-4-yl)piperazine-2-carbonitrile]", "Binding %": "++++ (++++indicates binding activity greater than 75%)"},
      {"smiles": "C=CC(=O)N1CCN(c2ncnc3cc(-c4ccccc4O)c(Cl)cc23)CC1C#N", "note": "(stereo not drawn) [Compound I-146, 1-acryloyl-4-(6-chloro-7-(2-hydroxyphenyl)quinazolin-4-yl)piperazine-2-carbonitrile]", "Binding %": "++++ (++++indicates binding activity greater than 75%)"},
      {"smiles": "C=CC(=O)N1CCN(c2ncnc3cc(-c4cc(C5CC5)ccc4F)c(Cl)cc23)CC1", "note": "[Compound I-147, 1-(4-(6-chloro-7-(5-cyclopropyl-2-fluorophenyl)quinazolin-4-yl)piperazin-1-yl)prop-2-en-1-one]", "Binding %": "++ (++indicates binding activity greater than 25% and up to 50%)"},
      {"smiles": "C=CC(=O)N1CCN(c2ncnc3cc(-c4cccc5c4CCCC5)c(Cl)cc23)CC1", "note": "[Compound I-148, 1-(4-(6-chloro-7-(5,6,7,8-tetrahydronaphthalen-1-yl)quinazolin-4-yl)piperazin-1-yl)prop-2-en-1-one]", "Binding %": "+++ (+++indicates binding activity greater than 50% and up to 75%)"},
      {"smiles": "C=CC(=O)N1CCN(c2ncnc3cc(-c4cccc5onc(N)c45)c(Cl)cc23)CC1", "note": "[Compound I-149, 1-(4-(7-(3-aminobenzo[d]isoxazol-4-yl)-6-chloroquinazolin-4-yl)piperazin-1-yl)prop-2-en-1-one]", "Binding %": "+ (+indicates binding activity from 5% to 25%)"},
      {"smiles": "C=CC(=O)N1CCN(c2ncnc3cc(-c4ccccc4F)c(C(F)(F)F)cc23)CC1", "note": "[Compound I-150, 1-(4-(7-(2-fluorophenyl)-6-(trifluoromethyl)quinazolin-4-yl)piperazin-1-yl)prop-2-en-1-one]", "Binding %": "++++ (++++indicates binding activity greater than 75%)"},
      {"smiles": "C=CC(=O)N1CCN(c2ncnc3cc(-c4cccc5cn[nH]c45)c(Cl)cc23)CC1", "note": "[Compound I-152, 1-(4-(6-chloro-7-(1H-indazol-7-yl)quinazolin-4-yl)piperazin-1-yl)prop-2-en-1-one]", "Binding %": "+++ (+++indicates binding activity greater than 50% and up to 75%)"},
      {"smiles": "C#Cc1ccccc1-c1cc2ncnc(N3CCN(C(=O)C=C)CC3)c2cc1Cl", "note": "[Compound I-154, 1-(4-(6-chloro-7-(2-ethynylphenyl)quinazolin-4-yl)piperazin-1-yl)prop-2-en-1-one]", "Binding %": "++ (++indicates binding activity greater than 25% and up to 50%)"},
      {"smiles": "C=CC(=O)N1CCN(c2ncnc3cc(-c4cc(C(N)=O)ccc4F)c(Cl)cc23)CC1", "note": "[Compound I-155, 3-(4-(4-acryloylpiperazin-1-yl)-6-chloroquinazolin-7-yl)-4-fluorobenzamide]", "Binding %": "++ (++indicates binding activity greater than 25% and up to 50%)"},
      {"smiles": "C=CC(=O)N1CCN(c2ncnc3cc(-c4ccccc4CC4CC4)c(Cl)cc23)CC1", "note": "[Compound I-156, 1-(4-(6-chloro-7-(2-(cyclopropylmethyl)phenyl)quinazolin-4-yl)piperazin-1-yl)prop-2-en-1-one]", "Binding %": "++ (++indicates binding activity greater than 25% and up to 50%)"},
      {"smiles": "C=CC(=O)N1CCN(c2ncnc3cc(-c4ccccc4C(F)(F)F)ccc23)CC1", "note": "[Compound I-157, 1-(4-(7-(2-(trifluoromethyl)phenyl)quinazolin-4-yl)piperazin-1-yl)prop-2-en-1-one]", "Binding %": "+ (+indicates binding activity from 5% to 25%)"},
      {"smiles": "C=CC(=O)N1CCN(c2ncnc3cc(-c4cccc5c4CC(=O)N5)c(Cl)cc23)CC1", "note": "[Compound I-160, 4-(4-(4-acryloylpiperazin-1-yl)-6-chloroquinazolin-7-yl)indolin-2-one]", "Binding %": "+ (+indicates binding activity from 5% to 25%)"},
      {"smiles": "C=CC(=O)N1CCN(c2ncnc3cc(-c4ccccc4CC(N)=O)c(Cl)cc23)CC1", "note": "[Compound I-161, 2-(2-(4-(4-acryloylpiperazin-1-yl)-6-chloroquinazolin-7-yl)phenyl)acetamide]", "Binding %": "++ (++indicates binding activity greater than 25% and up to 50%)"},
      {"smiles": "C=CC(=O)N1CCN(c2ncnc3cc(-c4ccc5cn[nH]c5c4)c(Cl)cc23)CC1", "note": "[Compound I-162, 1-(4-(6-chloro-7-(1H-indazol-6-yl)quinazolin-4-yl)piperazin-1-yl)prop-2-en-1-one]", "Binding %": "+ (+indicates binding activity from 5% to 25%)"},
      {"smiles": "C=CC(=O)N1CCN(c2ncnc3cc(-c4ccccc4F)c(O)cc23)CC1", "note": "[Compound I-163, 1-(4-(7-(2-fluorophenyl)-6-hydroxyquinazolin-4-yl)piperazin-1-yl)prop-2-en-1-one]", "Binding %": "+ (+indicates binding activity from 5% to 25%)"},
      {"smiles": "C=CC(=O)N1CCN(c2ncnc3cc(-c4ccc5oc(N)nc5c4)c(Cl)cc23)CC1", "note": "[Compound I-164, 1-(4-(7-(2-aminobenzo[d]oxazol-5-yl)-6-chloroquinazolin-4-yl)piperazin-1-yl)prop-2-en-1-one]", "Binding %": "+ (+indicates binding activity from 5% to 25%)"},
      {"smiles": "C=CC(=O)N1CCN(c2ncnc3cc(-c4ccccc4C(F)(F)F)sc23)CC1", "note": "[Compound I-166, 1-(4-(6-(2-(trifluoromethyl)phenyl)thieno[3,2-d]pyrimidin-4-yl)piperazin-1-yl)prop-2-en-1-one]", "Binding %": "+ (+indicates binding activity from 5% to 25%)"},
      {"smiles": "C=CC(=O)N1CCN(c2ncnc3cc(-c4cccc5[nH]ncc45)c(Cl)cc23)CC1", "note": "[Compound I-167, 1-(4-(6-chloro-7-(1H-indazol-4-yl)quinazolin-4-yl)piperazin-1-yl)prop-2-en-1-one]", "Binding %": "+ (+indicates binding activity from 5% to 25%)"},
      {"smiles": "C=CC(=O)N1CCN(c2ncnc3cc(-c4ccccc4CC#N)c(Cl)cc23)CC1", "note": "[Compound I-168, 2-(2-(4-(4-acryloylpiperazin-1-yl)-6-chloroquinazolin-7-yl)phenyl)acetonitrile]", "Binding %": "++ (++indicates binding activity greater than 25% and up to 50%)"},
      {"smiles": "C=CC(=O)N1CCN(c2ncnc3cc(-c4ccc(O)cc4C(F)(F)F)c(Cl)cc23)CC1", "note": "[Compound I-169, 1-(4-(6-chloro-7-(4-hydroxy-2-(trifluoromethyl)phenyl)quinazolin-4-yl)piperazin-1-yl)prop-2-en-1-one]", "Binding %": "+++ (+++indicates binding activity greater than 50% and up to 75%)"},
      {"smiles": "C=CC(=O)N1CCN(c2ncnc3cc(-c4ccc[nH]c4=O)c(Cl)cc23)CC1", "note": "[Compound I-170, 3-(4-(4-acryloylpiperazin-1-yl)-6-chloroquinazolin-7-yl)pyridin-2(1H)-one]", "Binding %": "+ (+indicates binding activity from 5% to 25%)"},
      {"smiles": "C=CC(=O)N1CCN(c2c(C#N)cnc3cc(-c4cccc5ccccc45)c(Cl)cc23)CC1", "note": "[Compound I-171, 4-(4-acryloylpiperazin-1-yl)-6-chloro-7-(naphthalen-1-yl)quinolin-3-carbonitrile]", "Binding %": "+++ (+++indicates binding activity greater than 50% and up to 75%)"},
      {"smiles": "C=CC(=O)N1CCN(c2c(C#N)cnc3cc(-c4ccc(F)cc4F)c(Cl)cc23)CC1", "note": "[Compound I-172, 4-(4-acryloylpiperazin-1-yl)-6-chloro-7-(2,4-difluorophenyl)quinolin-3-carbonitrile]", "Binding %": "+++ (+++indicates binding activity greater than 50% and up to 75%)"},
      {"smiles": "C=CC(=O)N1CCN(c2c(C#N)cnc3cc(-c4ccccc4C(F)(F)F)c(Cl)cc23)CC1", "note": "[Compound I-173, 4-(4-acryloylpiperazin-1-yl)-6-chloro-7-(2-(trifluoromethyl)phenyl) quinoline-3-carbonitrile]", "Binding %": "++++ (++++indicates binding activity greater than 75%)"}
    ]}
  ]
}
